Source: ChEMBL document CHEMBL3991601, “The target landscape of clinical kinase drugs” (Science, 2017)
Calls of active or inactive are those of the source. Rule as the data show it, for most assays here: actives have a measured Kd and inactives only a lower limit.

Key:
[1] = target: T1, Inhibitor of nuclear factor kappa-B kinase subunit epsilon (Homo sapiens, UniProt Q14164)
T1 sequence (Q14164 whole entry): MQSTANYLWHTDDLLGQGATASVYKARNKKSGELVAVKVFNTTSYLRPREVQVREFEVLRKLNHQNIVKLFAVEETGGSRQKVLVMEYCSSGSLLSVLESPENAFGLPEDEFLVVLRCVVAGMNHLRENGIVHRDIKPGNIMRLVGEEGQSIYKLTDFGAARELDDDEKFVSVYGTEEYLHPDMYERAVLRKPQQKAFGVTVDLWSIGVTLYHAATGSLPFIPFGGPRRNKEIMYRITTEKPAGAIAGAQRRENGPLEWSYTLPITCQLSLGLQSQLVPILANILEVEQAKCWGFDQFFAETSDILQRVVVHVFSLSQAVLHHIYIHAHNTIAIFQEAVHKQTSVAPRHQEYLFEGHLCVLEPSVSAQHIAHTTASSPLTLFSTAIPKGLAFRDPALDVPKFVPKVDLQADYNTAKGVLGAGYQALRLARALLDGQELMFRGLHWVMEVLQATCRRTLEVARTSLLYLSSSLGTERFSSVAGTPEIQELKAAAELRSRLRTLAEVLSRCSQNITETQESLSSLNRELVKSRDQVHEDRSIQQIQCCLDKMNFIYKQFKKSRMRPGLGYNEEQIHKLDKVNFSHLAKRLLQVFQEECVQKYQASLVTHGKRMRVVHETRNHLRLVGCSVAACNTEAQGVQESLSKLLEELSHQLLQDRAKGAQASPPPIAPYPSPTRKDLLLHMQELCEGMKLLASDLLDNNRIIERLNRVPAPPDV

[2] = target: Tyrosine-protein kinase Fer (Homo sapiens, UniProt P16591)
[3] = target: S-adenosylmethionine synthase isoform type-2 (Homo sapiens, UniProt P31153)
S-adenosylmethionine synthase isoform type-2, sequence (P31153 whole entry, canonical isoform): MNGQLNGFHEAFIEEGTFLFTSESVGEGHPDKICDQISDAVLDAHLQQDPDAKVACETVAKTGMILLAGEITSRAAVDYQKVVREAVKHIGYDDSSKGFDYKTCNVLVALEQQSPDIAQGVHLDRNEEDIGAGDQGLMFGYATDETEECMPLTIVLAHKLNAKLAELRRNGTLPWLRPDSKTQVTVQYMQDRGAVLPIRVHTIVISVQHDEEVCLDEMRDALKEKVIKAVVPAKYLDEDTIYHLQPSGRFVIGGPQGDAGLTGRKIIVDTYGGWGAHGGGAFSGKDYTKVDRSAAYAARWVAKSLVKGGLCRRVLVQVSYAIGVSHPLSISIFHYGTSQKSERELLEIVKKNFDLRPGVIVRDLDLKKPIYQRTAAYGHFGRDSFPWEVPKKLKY

[4] = target: Proto-oncogene tyrosine-protein kinase Src (Homo sapiens, UniProt P12931)
[5] = target: Elongation factor Tu, mitochondrial (Homo sapiens, UniProt P49411)
[6] = target: T2, Membrane-associated tyrosine- and threonine-specific cdc2-inhibitory kinase (Homo sapiens, UniProt Q99640)
T2 sequence (Q99640 whole entry): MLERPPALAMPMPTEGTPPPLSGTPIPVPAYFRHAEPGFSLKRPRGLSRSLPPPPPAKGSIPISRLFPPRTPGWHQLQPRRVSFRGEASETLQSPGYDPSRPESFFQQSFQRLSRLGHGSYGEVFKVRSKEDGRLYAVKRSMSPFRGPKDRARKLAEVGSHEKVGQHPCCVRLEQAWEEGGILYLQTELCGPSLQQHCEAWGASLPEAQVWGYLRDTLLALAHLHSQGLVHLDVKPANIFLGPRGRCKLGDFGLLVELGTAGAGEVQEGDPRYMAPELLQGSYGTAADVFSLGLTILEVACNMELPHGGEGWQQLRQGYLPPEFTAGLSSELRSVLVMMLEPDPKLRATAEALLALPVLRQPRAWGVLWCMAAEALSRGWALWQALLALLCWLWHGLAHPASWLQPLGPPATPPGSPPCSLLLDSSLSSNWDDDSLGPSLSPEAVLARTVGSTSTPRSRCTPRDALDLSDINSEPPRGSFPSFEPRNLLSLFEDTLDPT

[7] = target: T3, Phosphorylase b kinase gamma catalytic chain, liver/testis isoform (Homo sapiens, UniProt P15735)
T3 sequence (P15735 whole entry): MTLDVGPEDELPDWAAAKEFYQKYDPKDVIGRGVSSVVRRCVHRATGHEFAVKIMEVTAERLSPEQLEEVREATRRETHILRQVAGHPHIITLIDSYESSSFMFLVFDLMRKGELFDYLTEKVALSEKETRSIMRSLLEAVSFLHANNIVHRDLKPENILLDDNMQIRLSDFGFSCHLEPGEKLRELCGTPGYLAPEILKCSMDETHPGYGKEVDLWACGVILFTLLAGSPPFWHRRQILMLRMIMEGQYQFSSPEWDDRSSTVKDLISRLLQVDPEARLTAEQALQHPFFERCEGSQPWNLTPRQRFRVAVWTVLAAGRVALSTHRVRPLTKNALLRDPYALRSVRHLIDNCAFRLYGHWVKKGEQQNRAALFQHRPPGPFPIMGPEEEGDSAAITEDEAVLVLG

[8] = target: Serine/threonine-protein kinase pim-1 (Homo sapiens, UniProt P11309)
Serine/threonine-protein kinase pim-1, sequence (P11309 whole entry): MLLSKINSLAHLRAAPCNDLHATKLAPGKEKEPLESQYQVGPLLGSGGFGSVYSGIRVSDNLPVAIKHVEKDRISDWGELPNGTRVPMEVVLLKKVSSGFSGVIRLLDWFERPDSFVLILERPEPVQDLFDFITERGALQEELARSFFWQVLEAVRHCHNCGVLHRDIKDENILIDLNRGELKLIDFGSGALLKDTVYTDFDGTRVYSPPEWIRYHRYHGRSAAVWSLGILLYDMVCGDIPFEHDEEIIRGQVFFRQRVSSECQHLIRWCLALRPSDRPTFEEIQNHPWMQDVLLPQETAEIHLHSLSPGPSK

[9] = target: MAP/microtubule affinity-regulating kinase 3 (Homo sapiens, UniProt P27448)
[10] = target: Rho-associated protein kinase 2 (Homo sapiens, UniProt O75116)
[11] = target: Casein kinase II subunit alpha' (Homo sapiens, UniProt P19784)
Casein kinase II subunit alpha', sequence (P19784 whole entry): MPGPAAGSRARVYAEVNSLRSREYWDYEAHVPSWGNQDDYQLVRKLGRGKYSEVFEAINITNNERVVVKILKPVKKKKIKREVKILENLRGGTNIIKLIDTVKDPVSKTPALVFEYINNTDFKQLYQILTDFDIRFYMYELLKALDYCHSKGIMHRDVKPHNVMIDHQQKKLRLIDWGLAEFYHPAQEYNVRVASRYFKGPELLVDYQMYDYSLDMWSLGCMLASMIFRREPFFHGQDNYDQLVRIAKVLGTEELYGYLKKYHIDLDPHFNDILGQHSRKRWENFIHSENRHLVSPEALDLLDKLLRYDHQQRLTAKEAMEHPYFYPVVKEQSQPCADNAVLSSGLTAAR

[12] = target: Tyrosine-protein kinase CSK (Homo sapiens, UniProt P41240)
Ephrin type-A receptor 5 = Ephrin type-A receptor 5 (Homo sapiens, UniProt P54756)
Ephrin type-A receptor 5, sequence (P54756 whole entry): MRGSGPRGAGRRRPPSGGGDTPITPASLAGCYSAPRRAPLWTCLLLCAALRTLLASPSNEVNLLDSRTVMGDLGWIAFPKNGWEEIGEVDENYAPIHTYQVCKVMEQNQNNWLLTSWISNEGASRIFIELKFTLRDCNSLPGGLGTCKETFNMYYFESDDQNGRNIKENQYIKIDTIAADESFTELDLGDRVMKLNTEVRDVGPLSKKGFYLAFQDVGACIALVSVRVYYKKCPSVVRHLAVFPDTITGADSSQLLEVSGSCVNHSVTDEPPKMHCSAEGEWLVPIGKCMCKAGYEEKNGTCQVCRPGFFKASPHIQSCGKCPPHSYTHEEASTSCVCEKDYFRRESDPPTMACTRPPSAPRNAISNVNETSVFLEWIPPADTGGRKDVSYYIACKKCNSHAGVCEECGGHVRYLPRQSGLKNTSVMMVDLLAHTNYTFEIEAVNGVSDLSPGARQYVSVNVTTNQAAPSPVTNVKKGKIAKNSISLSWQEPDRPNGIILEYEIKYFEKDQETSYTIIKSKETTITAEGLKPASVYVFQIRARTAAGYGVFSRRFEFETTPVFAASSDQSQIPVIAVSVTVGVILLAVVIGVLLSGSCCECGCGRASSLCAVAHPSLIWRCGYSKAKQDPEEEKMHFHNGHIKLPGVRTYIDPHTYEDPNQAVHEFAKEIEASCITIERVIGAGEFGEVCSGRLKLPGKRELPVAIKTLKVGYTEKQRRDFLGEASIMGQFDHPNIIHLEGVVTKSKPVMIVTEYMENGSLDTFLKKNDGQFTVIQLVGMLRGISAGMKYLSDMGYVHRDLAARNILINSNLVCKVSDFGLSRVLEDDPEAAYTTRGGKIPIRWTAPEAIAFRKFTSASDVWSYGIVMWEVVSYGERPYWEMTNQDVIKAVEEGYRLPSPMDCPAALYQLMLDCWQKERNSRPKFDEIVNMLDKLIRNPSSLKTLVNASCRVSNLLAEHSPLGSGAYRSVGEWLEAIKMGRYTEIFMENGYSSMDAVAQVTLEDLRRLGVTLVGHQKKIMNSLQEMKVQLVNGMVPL

[13] = target: BMP-2-inducible protein kinase (Homo sapiens, UniProt Q9NSY1)
BMP-2-inducible protein kinase, sequence (Q9NSY1 whole entry): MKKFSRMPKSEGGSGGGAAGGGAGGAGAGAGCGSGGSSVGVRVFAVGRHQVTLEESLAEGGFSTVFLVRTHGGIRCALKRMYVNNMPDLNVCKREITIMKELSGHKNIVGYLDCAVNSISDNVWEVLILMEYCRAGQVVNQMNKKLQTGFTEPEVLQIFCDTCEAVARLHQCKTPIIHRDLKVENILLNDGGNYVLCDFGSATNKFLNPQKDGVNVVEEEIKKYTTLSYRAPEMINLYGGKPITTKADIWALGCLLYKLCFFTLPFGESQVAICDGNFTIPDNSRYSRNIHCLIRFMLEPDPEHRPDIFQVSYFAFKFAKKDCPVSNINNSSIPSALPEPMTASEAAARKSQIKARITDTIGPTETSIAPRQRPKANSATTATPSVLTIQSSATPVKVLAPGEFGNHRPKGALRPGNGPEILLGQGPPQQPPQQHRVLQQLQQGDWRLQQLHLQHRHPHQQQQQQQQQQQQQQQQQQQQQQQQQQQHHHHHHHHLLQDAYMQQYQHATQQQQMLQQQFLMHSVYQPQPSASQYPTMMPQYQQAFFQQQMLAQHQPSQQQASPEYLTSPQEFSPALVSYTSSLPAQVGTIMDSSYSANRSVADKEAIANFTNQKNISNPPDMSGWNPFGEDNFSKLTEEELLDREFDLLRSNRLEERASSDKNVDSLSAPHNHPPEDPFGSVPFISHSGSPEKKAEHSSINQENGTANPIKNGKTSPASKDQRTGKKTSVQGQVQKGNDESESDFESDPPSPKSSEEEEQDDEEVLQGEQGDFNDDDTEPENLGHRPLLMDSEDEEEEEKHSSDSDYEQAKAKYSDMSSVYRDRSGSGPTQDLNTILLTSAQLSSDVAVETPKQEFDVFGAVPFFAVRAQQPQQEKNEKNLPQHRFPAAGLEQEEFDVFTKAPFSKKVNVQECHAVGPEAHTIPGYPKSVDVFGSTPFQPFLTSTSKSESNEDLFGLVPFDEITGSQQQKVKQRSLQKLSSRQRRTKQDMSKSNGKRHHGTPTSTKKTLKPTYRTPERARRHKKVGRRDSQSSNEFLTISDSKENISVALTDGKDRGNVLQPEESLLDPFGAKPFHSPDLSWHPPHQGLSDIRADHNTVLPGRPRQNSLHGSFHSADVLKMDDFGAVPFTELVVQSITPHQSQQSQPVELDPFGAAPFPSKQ

Ephrin type-A receptor 7 = Ephrin type-A receptor 7 (Homo sapiens, UniProt Q15375)
Ephrin type-A receptor 7, sequence (Q15375 whole entry): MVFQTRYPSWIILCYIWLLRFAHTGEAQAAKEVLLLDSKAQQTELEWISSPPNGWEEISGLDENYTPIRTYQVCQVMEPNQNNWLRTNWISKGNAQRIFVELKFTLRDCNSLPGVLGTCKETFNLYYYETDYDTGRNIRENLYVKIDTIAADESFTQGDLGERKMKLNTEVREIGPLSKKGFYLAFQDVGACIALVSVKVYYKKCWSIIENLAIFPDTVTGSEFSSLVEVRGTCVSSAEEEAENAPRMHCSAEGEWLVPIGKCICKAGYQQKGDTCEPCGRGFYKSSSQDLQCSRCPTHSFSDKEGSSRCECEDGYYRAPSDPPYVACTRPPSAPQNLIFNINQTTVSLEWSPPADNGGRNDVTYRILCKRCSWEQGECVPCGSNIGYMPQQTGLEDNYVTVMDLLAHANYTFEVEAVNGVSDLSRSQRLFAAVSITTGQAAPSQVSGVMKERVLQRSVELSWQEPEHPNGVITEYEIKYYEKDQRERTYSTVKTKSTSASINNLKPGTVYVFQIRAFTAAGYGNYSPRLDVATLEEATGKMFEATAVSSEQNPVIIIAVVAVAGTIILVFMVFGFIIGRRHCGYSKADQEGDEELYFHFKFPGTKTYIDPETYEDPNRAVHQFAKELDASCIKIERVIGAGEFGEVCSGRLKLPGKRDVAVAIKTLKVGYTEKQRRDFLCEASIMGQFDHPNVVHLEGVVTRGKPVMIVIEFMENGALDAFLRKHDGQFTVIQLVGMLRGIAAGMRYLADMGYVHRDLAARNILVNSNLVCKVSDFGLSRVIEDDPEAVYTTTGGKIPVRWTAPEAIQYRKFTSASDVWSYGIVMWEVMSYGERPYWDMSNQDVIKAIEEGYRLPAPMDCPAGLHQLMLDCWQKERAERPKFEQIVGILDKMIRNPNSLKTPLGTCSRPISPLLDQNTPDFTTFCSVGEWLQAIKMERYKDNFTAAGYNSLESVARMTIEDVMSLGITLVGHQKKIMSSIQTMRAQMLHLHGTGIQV

[14] = target: RAC-alpha serine/threonine-protein kinase (Homo sapiens, UniProt P31749)
RAC-alpha serine/threonine-protein kinase, sequence (P31749 whole entry): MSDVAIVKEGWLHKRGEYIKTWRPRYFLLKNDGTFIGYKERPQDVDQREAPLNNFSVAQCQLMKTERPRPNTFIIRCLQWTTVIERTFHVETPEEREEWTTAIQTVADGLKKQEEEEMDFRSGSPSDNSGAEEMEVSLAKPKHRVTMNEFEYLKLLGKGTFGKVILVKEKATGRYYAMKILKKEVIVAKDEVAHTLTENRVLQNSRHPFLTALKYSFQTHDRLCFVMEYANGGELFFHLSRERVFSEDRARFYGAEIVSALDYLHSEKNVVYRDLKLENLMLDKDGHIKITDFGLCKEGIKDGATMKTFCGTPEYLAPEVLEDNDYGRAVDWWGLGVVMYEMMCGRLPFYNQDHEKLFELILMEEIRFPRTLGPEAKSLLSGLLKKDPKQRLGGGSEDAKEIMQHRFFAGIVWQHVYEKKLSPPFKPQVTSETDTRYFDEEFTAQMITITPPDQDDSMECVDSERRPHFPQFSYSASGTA
Also: in the data inactive means no Kd found up to 30 µM.

| SMILES | Kd [1] | Kd [2] | Kd [3] | Kd [4] | Kd [5] | Kd [6] | Kd [7] | Kd [8] | Kd [9] | Kd [10] | Kd [11] | Kd [12] | Kd (Ephrin type-A receptor 5) | Kd [13] | Kd (Ephrin type-A receptor 7) | Kd [14] |
| --- | --- | --- | --- | --- | --- | --- | --- | --- | --- | --- | --- | --- | --- | --- | --- | --- |
| Cc1c(NC(=O)OC[C@@H]2COCCN2)cn2ncnc(Nc3ccc4c(cnn4Cc4cccc(F)c4)c3)c12 [AC-480] | > 30 µM (inactive) | > 30 µM (inactive) | > 30 µM (inactive) | > 30 µM (inactive) | > 30 µM (inactive) | > 30 µM (inactive) | > 30 µM (inactive) | > 30 µM (inactive) | > 30 µM (inactive) | > 30 µM (inactive) | > 30 µM (inactive) | > 30 µM (inactive) | > 30 µM (inactive) | > 30 µM (inactive) | > 30 µM (inactive) | > 30 µM (inactive) |
| CCc1cc2c(cc1N1CCC(N3CCOCC3)CC1)C(C)(C)c1[nH]c3cc(C#N)ccc3c1C2=O [ALECTINIB] | > 30 µM (inactive) | 3.76 µM (active) | > 30 µM (inactive) | > 30 µM (inactive) | > 30 µM (inactive) | > 30 µM (inactive) | 1.71 µM (active) | > 30 µM (inactive) | > 30 µM (inactive) | > 30 µM (inactive) | > 30 µM (inactive) | > 30 µM (inactive) | > 30 µM (inactive) | > 30 µM (inactive) | > 30 µM (inactive) | > 30 µM (inactive) |
| COc1ccc2c(OCc3nnc4ccc(-c5ccccc5)nn34)ccnc2c1 [AMG-208] | > 30 µM (inactive) | > 30 µM (inactive) | > 30 µM (inactive) | > 30 µM (inactive) | > 30 µM (inactive) | > 30 µM (inactive) | > 30 µM (inactive) | > 30 µM (inactive) | > 30 µM (inactive) | > 30 µM (inactive) | > 30 µM (inactive) | > 30 µM (inactive) | > 30 µM (inactive) | > 30 µM (inactive) | > 30 µM (inactive) | > 30 µM (inactive) |
| S=C(NCc1ccc2c(c1)OCO2)N1CCN(c2ncnc3c2oc2ccccc23)CC1 [AMUVATINIB] | > 30 µM (inactive) | > 30 µM (inactive) | > 30 µM (inactive) | > 30 µM (inactive) | > 30 µM (inactive) | > 30 µM (inactive) | > 30 µM (inactive) | > 30 µM (inactive) | > 30 µM (inactive) | > 30 µM (inactive) | > 30 µM (inactive) | > 30 µM (inactive) | > 30 µM (inactive) | > 30 µM (inactive) | > 30 µM (inactive) | > 30 µM (inactive) |
| Cc1cc(Nc2nc(N[C@@H](C)c3ncc(F)cn3)ncc2Cl)n[nH]1 [AZD-1480] | > 30 µM (inactive) | 0.517 µM (active) | > 30 µM (inactive) | > 30 µM (inactive) | > 30 µM (inactive) | > 30 µM (inactive) | > 30 µM (inactive) | > 30 µM (inactive) | > 30 µM (inactive) | > 30 µM (inactive) | 3.96 µM (active) | > 30 µM (inactive) | > 30 µM (inactive) | > 30 µM (inactive) | > 30 µM (inactive) | > 30 µM (inactive) |
| COc1cc2nccc(Oc3ccc(NC(=O)C4(C(=O)Nc5ccc(F)cc5)CC4)cc3)c2cc1OC [CABOZANTINIB] | > 30 µM (inactive) | > 30 µM (inactive) | > 30 µM (inactive) | > 30 µM (inactive) | > 30 µM (inactive) | > 30 µM (inactive) | > 30 µM (inactive) | > 30 µM (inactive) | > 30 µM (inactive) | > 30 µM (inactive) | > 30 µM (inactive) | > 30 µM (inactive) | > 30 µM (inactive) | > 30 µM (inactive) | > 30 µM (inactive) | > 30 µM (inactive) |
| c1cc(OCCN2CCCCC2)cc(-c2n[nH]c3ccc(-c4nc[nH]n4)cc23)c1 [CC-401] | > 30 µM (inactive) | > 30 µM (inactive) | > 30 µM (inactive) | > 30 µM (inactive) | > 30 µM (inactive) | > 30 µM (inactive) | > 30 µM (inactive) | > 30 µM (inactive) | > 30 µM (inactive) | > 30 µM (inactive) | 0.584 µM (active) | > 30 µM (inactive) | > 30 µM (inactive) | 1.47 µM (active) | > 30 µM (inactive) | > 30 µM (inactive) |
| CC1(COc2ccc3c(c2)ncn3-c2ccc3cccc(N4CCC(N)CC4)c3n2)COC1 [CRENOLANIB] | > 30 µM (inactive) | > 30 µM (inactive) | > 30 µM (inactive) | > 30 µM (inactive) | > 30 µM (inactive) | > 30 µM (inactive) | 5.02 µM (active) | > 30 µM (inactive) | 0.22 µM (active) | > 30 µM (inactive) | > 30 µM (inactive) | > 30 µM (inactive) | > 30 µM (inactive) | 1.2 µM (active) | > 30 µM (inactive) | > 30 µM (inactive) |
| COc1cc2ncnc(Nc3ccc(F)c(Cl)c3)c2cc1NC(=O)/C=C/CN1CCCCC1 [DACOMITINIB ANHYDROUS] | > 30 µM (inactive) | > 30 µM (inactive) | > 30 µM (inactive) | > 30 µM (inactive) | > 30 µM (inactive) | > 30 µM (inactive) | > 30 µM (inactive) | > 30 µM (inactive) | > 30 µM (inactive) | > 30 µM (inactive) | > 30 µM (inactive) | > 30 µM (inactive) | > 30 µM (inactive) | > 30 µM (inactive) | > 30 µM (inactive) | > 30 µM (inactive) |
| CC[C@@](C)(Nc1ccnc(-c2c[nH]c3ncccc23)n1)C(=O)NCC(F)(F)F [DECERNOTINIB] | > 30 µM (inactive) | > 30 µM (inactive) | > 30 µM (inactive) | > 30 µM (inactive) | > 30 µM (inactive) | > 30 µM (inactive) | > 30 µM (inactive) | > 30 µM (inactive) | 0.562 µM (active) | 56.1 µM (active) | 3.23 µM (active) | > 30 µM (inactive) | > 30 µM (inactive) | 5.75 µM (active) | > 30 µM (inactive) | > 30 µM (inactive) |
| CNC(=O)c1ccc(Nc2ncc(C(F)(F)F)c(NCc3nccnc3N(C)S(C)(=O)=O)n2)cc1 [DEFACTINIB] | > 30 µM (inactive) | 1.3 µM (active) | > 30 µM (inactive) | > 30 µM (inactive) | > 30 µM (inactive) | > 30 µM (inactive) | > 30 µM (inactive) | > 30 µM (inactive) | 4.49 µM (active) | > 30 µM (inactive) | 1.2 µM (active) | > 30 µM (inactive) | > 30 µM (inactive) | > 30 µM (inactive) | > 30 µM (inactive) | > 30 µM (inactive) |
